# Reference: ChEMBL document CHEMBL5236619, “Design and Optimization of 1H-1,2,3-Triazole-4-carboxamides as Novel, Potent, and Selective Inverse Agonists and Antagonists of PXR” (J Med Chem, 2022)
# Key:
# [1] = biological target: T1, Nuclear receptor subfamily 1 group I member 2 (Homo sapiens, UniProt O75469); test: Agonist activity at human PXR in human HepG2 cells co-expressing luciferase gene under control of CYP3A4 promoter assessed as transcriptional activation at 30 uM incubated for 24 hrs by luminescence based analysis; type: cell-based; details: hepg2, 24 h
# T1 sequence (O75469 whole entry): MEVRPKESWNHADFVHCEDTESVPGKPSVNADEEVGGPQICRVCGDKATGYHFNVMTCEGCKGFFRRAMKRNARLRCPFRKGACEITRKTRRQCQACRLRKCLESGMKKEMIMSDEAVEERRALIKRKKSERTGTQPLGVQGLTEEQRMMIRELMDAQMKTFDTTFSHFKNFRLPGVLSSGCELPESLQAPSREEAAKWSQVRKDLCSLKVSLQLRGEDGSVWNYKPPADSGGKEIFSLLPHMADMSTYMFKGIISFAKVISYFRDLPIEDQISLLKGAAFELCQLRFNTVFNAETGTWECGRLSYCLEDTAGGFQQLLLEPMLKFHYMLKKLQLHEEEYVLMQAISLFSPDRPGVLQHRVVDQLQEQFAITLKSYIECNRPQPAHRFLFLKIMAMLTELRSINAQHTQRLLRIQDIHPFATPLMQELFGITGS
# PXR (NR1I2) [2] = biological target: T2, PXR (NR1I2) (Homo sapiens, UniProt O75469); test: Antagonist activity at human PXR in human HepG2 cells co-expressing luciferase gene under control of CYP3A4 promoter assessed as inhibition in rifampicin-induced receptor activation at 10 uM incubated for 24 hrs by luminescence based analysis relative to control; type: cell-based
# T2 sequence (O75469 whole entry): T1 sequence (O75469 whole entry)
# PXR (NR1I2) [3] = biological target: T2, PXR (NR1I2); test: Inverse agonist activity at human PXR in human HepG2 cells co-expressing luciferase gene under control of CYP3A4 promoter assessed as inhibition in receptor basal activity at 10 uM incubated for 24 hrs by luminescence based analysis relative to control; type: cell-based
# [4] = biological target: T1, Nuclear receptor subfamily 1 group I member 2; test: Inhibition of BODIPY FL vindoline binding to recombinant human GST-tagged PXR LBD (111 to 434 residues) expressed in baculovirus infected insect cells incubated for 1 mins under shaking condition followed by 60 mins under dark condition by TR-FRET assay
# [5] = biological target: T3, PXR (NR1I2) ligand binding domain (Homo sapiens, UniProt O75469); test: Inhibition of BODIPY FL vindoline binding to recombinant human GST-tagged PXR LBD (111 to 434 residues) expressed in baculovirus infected insect cells at 10 uM incubated for 1 mins under shaking condition followed by 60 mins under dark condition by TR-FRET assay relative to control; details: probe BODIPY FL vindoline, time 61 min
# T3 sequence (O75469 whole entry): T1 sequence (O75469 whole entry)
# [6] = biological target: T1, Nuclear receptor subfamily 1 group I member 2; test: Antagonist activity at human PXR in human HepG2 cells co-expressing luciferase gene under control of CYP3A4 promoter assessed as inhibition in rifampicin-induced receptor activation at 30 uM incubated for 24 hrs by luminescence based analysis; type: cell-based; details: hepg2, 24 h
# [7] = biological target: T1, Nuclear receptor subfamily 1 group I member 2; test: Agonist activity at human PXR in human HepG2 cells co-expressing luciferase gene under control of CYP3A4 promoter assessed as transcriptional activation incubated for 24 hrs by luminescence based analysis
# [8] = biological target: T1, Nuclear receptor subfamily 1 group I member 2; test: Agonist activity at human PXR in human HepG2 cells co-expressing luciferase gene under control of CYP3A4 promoter assessed as transcriptional activation at 10 uM incubated for 24 hrs by luminescence based analysis relative to control
# [9] = biological target: T1, Nuclear receptor subfamily 1 group I member 2; test: Inverse agonist activity at human PXR in human HepG2 cells co-expressing luciferase gene under control of CYP3A4 promoter assessed as inhibition in receptor basal activity at 30 uM incubated for 24 hrs by luminescence based analysis; details: hepg2, 24 h
# [10] = biological target: T1, Nuclear receptor subfamily 1 group I member 2; test: Inverse agonist activity at human PXR in human HepG2 cells co-expressing luciferase gene under control of CYP3A4 promoter assessed as inhibition of receptor basal activity incubated for 24 hrs by luminescence based analysis; type: cell-based
Activity [1],"inhibition at 24 h, 10 µM (PXR (NR1I2) [3]) [%]","inhibition at 1.017 h, 10 µM [5] [%]",Structure (SMILES),further results
Not Active,,,CNc1cc(NC(=O)c2nnn(-c3cc(OC)ccc3OC)c2C)cc(C(C)(C)C)c1,"inhibition at 24 h, 10 µM (PXR (NR1I2) [2]): 109%"
,73,,CCCCOc1ccc(NC(=O)c2nnn(-c3cc(OC)ccc3OC)c2C)cc1C(C)(C)C,"inhibition (INH) ([4]; human, 1.017 h, time 61 min): Not Active"
,,65,COc1ccc(OC)c(-n2nnc(C(=O)Nc3ccc(NC(C)=O)c(C(C)(C)C)c3)c2C)c1,"inhibition (INH) [6]: Not Active; EC50 [7]: 2000 nM; activity at 24 h, 10 µM [8]: 50%; INH [9]: Not Active"
Not Active,89,90,CCCCOc1ccc(C(C)(C)C)cc1NC(=O)c1nnn(-c2cc(OC)ccc2OC)c1C,
,,,CCC[C@@H](C)Oc1ccc(C(C)(C)C)cc1NC(=O)c1nnn(-c2cc(C)ccc2OC)c1C,EC50 [7]: 8.1 nM; IC50 [4]: 11 nM; INH [9]: Not Active
Not Active,118,73,CCOc1ccc(C(C)(C)C)cc1NC(=O)c1nnn(-c2cc(OC)ccc2OC)c1C,
Not Active,,,CCCCN(CCCC)c1cc(NC(=O)c2nnn(-c3cc(OC)ccc3OC)c2C)cc(C(C)(C)C)c1,"inhibition at 24 h, 10 µM (PXR (NR1I2) [2]): 82%"

Structure (SMILES),Activity [1],"inhibition at 24 h, 10 µM (PXR (NR1I2) [3]) [%]","inhibition at 1.017 h, 10 µM [5] [%]",further results
CCCC(C)Oc1ccc(C(C)(C)C)cc1NC(=O)c1nnn(-c2cc(OC)ccc2OC)c1C (racemic),Not Active,117,90,
COc1ccc(OC)c(-n2nnc(C(=O)Nc3cc(C(C)(C)C)ccc3OCCN(C)C)c2C)c1,Not Active,,87,IC50 [10]: 1800 nM
